Source: paper PMC11273431, “Isolation, Characterization, and Functional Properties of Antioxidant Peptides from Mulberry Leaf Enzymatic Hydrolysates” (Antioxidants, 2024)

Columns and labels:
Type in all cases: cell-based
HepG2 cells [1] = assay: Hoechst 33258 staining, chromatin damage; conditions: 5–10 μg/mL pretreatment 6 h, then H2O2 160 μM 24 h; fluorescence microscopy
Protocol: (§1) HepG2 cells were treated as in Section 2.10. Hoechst 33258 (Item No. C0021) and JC-1 (Item No. M8650) staining was performed according to the instructions provided in the staining kit.
Hoechst 33258 staining was directly observed using a fluorescence microscope.

SOD = SOD activity in HepG2 cells; conditions: 5–10 μg/mL pretreatment 6 h, then H2O2 160 μM 24 h; p < 0.01
Protocol: (§2) First, HepG2 cells (1 × 10^5 cells/mL) in a volume of 2 mL were seeded in a 6-well culture plate and incubated at 37 °C for 24 h. Experimental grouping and treatments were the same as in Section 2.9. Next, cells were collected, and cell lysis was performed using RIPA cell lysis solution. The protein concentration in cell lysates was determined by the BCA protein assay kit. SOD (Item No. A001-3-2) and CAT (Item No. A007-1-1) activity assays were carried out according to the instructions provided with the corresponding assay kits.

ROS in HepG2 cells = assay: ROS levels, DCFH-DA fluorescence; conditions: 5–10 μg/mL pretreatment 6 h, then H2O2 160 μM 24 h; p < 0.01
Protocol: HepG2 cells were treated as in Section 2.10. After that, the supernatant was discarded, and cells were gently washed twice with PBS. Subsequently, the cells were incubated with DMEM containing 10 μM DCFH2-DA at 37 °C for 20 min. After the incubation, the cells were carefully washed twice with PBS, and then 1 mL of DMEM was added, after which the cells were observed under a fluorescence microscope.
The contents of ROS were indicated by DCF fluorescence and quantified using excitation and emission filters of 488 and 525 nm, respectively. The ROS levels were expressed as a percentage of the blank control values.

HepG2 cells [2] = assay: JC-1 staining, mitochondrial membrane potential; conditions: 5–10 μg/mL pretreatment 6 h, then H2O2 160 μM 24 h; for JC-1 green fluorescence: fluorescence microscopy; for JC-1 red/green fluorescence ratio: microplate reader, versus H2O2 damage group
Protocol: as §1
After JC-1 staining, the samples were examined under a fluorescence microscope. […] The red/green fluorescence ratio can be considered a direct indicator of the state of mitochondrial polarization.

HepG2 cells [3] = assay: Apoptosis, Annexin V-FITC/PI flow cytometry; conditions: 5–10 μg/mL pretreatment 6 h, then H2O2 160 μM 24 h
Protocol: HepG2 cells were treated as in Section 2.10. After that, cells were collected, rinsed twice with PBS, and then resuspended in Apoptosis Detection Staining solution (containing 2 μL of Annexin V-FITC dye, 5 μL of PI dye, and 100 μL of Binding buffer).
After 15 min of dark incubation at room temperature, cells were analyzed for their apoptotic status (Ex = 488 nm, FL1 EM = 515 nm, FL2 EM = 560 nm) using the BD Fortessa flow cytometer (Becton Dickinson, Franklin Lakes, NJ, USA), and the data were analyzed with Flowjo software 10.0.

CAT = CAT activity in HepG2 cells; conditions: 5–10 μg/mL pretreatment 6 h, then H2O2 160 μM 24 h; p < 0.01
Protocol: as §2

HepG2 cells [4] = assay: Protective effect against H2O2-induced oxidative damage, CCK-8; conditions: peptide 100 μg/mL pretreatment 6 h, then H2O2 160 μM 24 h
Protocol: We first established a H2O2-induced oxidative damage model in HepG2 cells. HepG2 cells (1 × 10^5 cells/mL) in a volume of 100 μL were seeded in a 96-well culture plate and incubated at 37 °C for 24 h. The control group and damage group received 100 μL of DMEM, the positive control group received 100 μL of 100 μg/mL Trolox, and the experimental group received 100 μL of DMEM containing different concentrations of peptides.
After culturing for another 6 h, the experimental and damage groups were exposed to H2O2 (160 μM) for 24 h, while the control group received an equal volume of DMEM. Finally, cell viability was measured following the procedures in Section 2.8.

HepG2 cells [5] = assay: Cell viability, CCK-8; conditions: 160 μM H2O2, 24 h
Protocol: HepG2 cells were cultured in a complete medium (90% DMEM + 10% FBS + 100 units/mL penicillin and 100 μg/mL streptomycin) at 37 °C, 5% CO2, and 90% relative humidity. The Cell Counting Kit-8 (CCK-8) Assay Kit was used to detect the effect of H2O2 and peptides on cell viability. HepG2 cells (1 × 10^5 cells/mL) were pre-seeded in a 96-well culture plate overnight and then treated with H2O2 and peptides at 37 °C for 24 h. Cell viability was assessed with the CCK-8 kit (Item No. BS350C) according to the protocol supplied by the manufacturer.

Molecule | Hoechst 33258 nuclear fluorescence (chromatin damage) (HepG2 cells [1]) | SOD activity (SOD) | Cellular DCF fluorescence intensity (ROS) (ROS in HepG2 cells) | JC-1 green fluorescence (HepG2 cells [2]) | JC-1 red/green fluorescence ratio (HepG2 cells [2]) | Apoptosis rate (HepG2 cells [3]) | CAT activity (CAT) | Mitigating effect on H2O2-induced oxidative damage (cell survival rate) (HepG2 cells [4]) | Cell survival rate (HepG2 cells [5]) [%]
EGDAGAQGPPGPAGPAGER [Peptide P6] | reduced blue fluorescence and fewer bright spots | significant increase | significantly reduced | reduced green fluorescence | effectively alleviated | significantly reduced the apoptosis rate | significant increase | significantly better than those of the other peptides | –
OO [Peptide H2O2, hydrogen peroxide] | – | – | – | – | – | – | – | – | ~50
RPGPSPGVGAPGK [Peptide P7] | reduced blue fluorescence and fewer bright spots | significant increase | significantly reduced | reduced green fluorescence | effectively alleviated | significantly reduced the apoptosis rate | significant increase | significantly better than those of the other peptides | –
